# Read-outs that look alike come from different tables or passages of the source. Marks after values point to notes of the source that are not given here.
# Key:
# [1] = cited from earlier work
# [2] = test system: active GLP-1; assay: Postprandial plasma active GLP-1 in healthy subjects; type: in vivo, human
# [3] = test system: serum glucose; assay: Postprandial serum glucose in healthy subjects; type: in vivo, human
# [4] = test system: whole blood insulin; assay: Postprandial whole blood insulin in healthy subjects; type: in vivo, human
# [5] = Safety and tolerability assessment; type: in vivo, human
# [6] = test system: human DPP-VIII; settings: selectivity; cited from earlier work
# [7] = test system: human DPP-IX; settings: selectivity; cited from earlier work
# [8] = test system: human DPP-I; settings: selectivity; cited from earlier work
# [9] = test system: human DPP-II; settings: selectivity; cited from earlier work
# [10] = test system: fibroblast activation protein-alpha (FAPα); settings: selectivity; cited from earlier work
# [11] = test system: antiphagocytic protein 1 (APP1); settings: selectivity; cited from earlier work
# [12] = test system: prolidase; settings: selectivity; cited from earlier work
# [13] = test system: granzyme B; settings: selectivity; cited from earlier work
# [14] = test system: cytochrome P450 (CYP) 3A4; settings: in vitro studies; cited from earlier work
# [15] = test system: CYP1A2; settings: in vitro studies; cited from earlier work
# [16] = test system: CYP2C9; settings: in vitro studies; cited from earlier work
# [17] = test system: CYP2C19; settings: in vitro studies; cited from earlier work
# [18] = test system: CYP2D6; settings: in vitro studies; cited from earlier work
# [19] = test system: CYP3A4; settings: in vitro studies; cited from earlier work
# [20] = test system: CYP3A4; settings: in vitro studies; cited from earlier work; remark: listed apart in the source
# [21] = dose range 1.25–60 mg, healthy volunteers; cited from earlier work
# [22] = test system: high fat diet-fed mice; settings: cited from earlier work
# [23] = test system: db/db mice; settings: young leptin receptor-deficient db/db mice; cited from earlier work
# [24] = test system: streptozotocin-induced diabetic mice; settings: cited from earlier work
# [25] = baseline corrected, day 1, 5 mg
# [26] = baseline corrected, day 1, 10 mg
# [27] = baseline corrected, day 1, 20 mg
# [28] = baseline corrected, day 10, 5 mg
# [29] = baseline corrected, day 10, 10 mg
# [30] = baseline corrected, day 10, 20 mg
# [31] = baseline uncorrected, day 1, 5 mg
# [32] = baseline uncorrected, day 1, 10 mg
# [33] = baseline uncorrected, day 1, 20 mg
# [34] = baseline uncorrected, day 10, 5 mg
# [35] = baseline uncorrected, day 10, 10 mg
# [36] = baseline uncorrected, day 10, 20 mg
# [37] = 5 mg (N=8), judged to be related to the study drug
# [38] = 5 mg once daily for 10 days (N=8)
# [39] = 10 mg (N=8), judged to be related to the study drug
# [40] = 10 mg once daily for 10 days (N=8)
# [41] = 20 mg (N=8), judged to be related to the study drug
# [42] = 20 mg once daily for 10 days (N=8)
compound,measurement,setting,value
CC#CCn1c(N2CCC[C@@H](N)C2)nc2c1c(=O)n(Cc1nc(C)c3ccccc3n1)c(=O)n2C [linagliptin],terminal elimination half-life,[1],120 h
CC(C)(C)OC[C@@H]1C(=O)NCCN1C(=O)C[C@H](N)Cc1cc(F)c(F)cc1F [Evogliptin],Average AUEtotal (CV%) GLP-1,[2]; [25],25.7 (48.3) pM·h
same,Average AUEtotal (CV%) GLP-1,[2]; [26],24.9 (46.0) pM·h
same,Average AUEtotal (CV%) GLP-1,[2]; [27],45.3 (73.8) pM·h
same,Average AUEtotal (CV%) GLP-1,[2]; [28],25.4 (56.7) pM·h
same,Average AUEtotal (CV%) GLP-1,[2]; [29],22.2 (41.0) pM·h
same,Average AUEtotal (CV%) GLP-1,[2]; [30],35.5 (67.3) pM·h
same,Average AUEtotal (CV%) GLP-1,[2]; [31],55.8 (49.6) pM·h
same,Average AUEtotal (CV%) GLP-1,[2]; [32],55.0 (35.9) pM·h
same,Average AUEtotal (CV%) GLP-1,[2]; [33],82.8 (55.3) pM·h
same,Average AUEtotal (CV%) GLP-1,[2]; [34],75.7 (111.2) pM·h
same,Average AUEtotal (CV%) GLP-1,[2]; [35],52.6 (25.0) pM·h
same,Average AUEtotal (CV%) GLP-1,[2]; [36],72.8 (37.0) pM·h
same,reduction of baseline corrected AUEtotal of glucose compared to placebo,[3]; 5 mg,20%
same,reduction of baseline corrected AUEtotal of glucose compared to placebo,[3]; 10 mg,25%
same,reduction of baseline corrected AUEtotal of glucose compared to placebo,[3]; 20 mg,35%
same,effect on fasting glucose levels,[3]; 5-20 mg,did not affect the fasting glucose levels
same,Average AUEtotal (CV%) Glucose,[3]; [25],264.1 (36.1) h·mg/dL
same,Average AUEtotal (CV%) Glucose,[3]; [26],234.9 (24.9) h·mg/dL
same,Average AUEtotal (CV%) Glucose,[3]; [27],229.7 (37.6) h·mg/dL
same,Average AUEtotal (CV%) Glucose,[3]; [28],259.4 (25.2) h·mg/dL
same,Average AUEtotal (CV%) Glucose,[3]; [29],242.8 (41.6) h·mg/dL
same,Average AUEtotal (CV%) Glucose,[3]; [30],209.3 (31.0) h·mg/dL
same,Average AUEtotal (CV%) Glucose,[3]; [31],741.3 (14.1) h·mg/dL
same,Average AUEtotal (CV%) Glucose,[3]; [32],747.3 (6.0) h·mg/dL
same,Average AUEtotal (CV%) Glucose,[3]; [33],747.8 (11.9) h·mg/dL
same,Average AUEtotal (CV%) Glucose,[3]; [34],759.6 (9.1) h·mg/dL
same,Average AUEtotal (CV%) Glucose,[3]; [35],751.4 (12.6) h·mg/dL
same,Average AUEtotal (CV%) Glucose,[3]; [36],727.0 (7.2) h·mg/dL
same,Average AUEtotal (CV%) Insulin,[4]; [25],238.3 (15.0) h·μIU/mL
same,Average AUEtotal (CV%) Insulin,[4]; [26],315.1 (35.7) h·μIU/mL
same,Average AUEtotal (CV%) Insulin,[4]; [27],223.3 (50.8) h·μIU/mL
same,Average AUEtotal (CV%) Insulin,[4]; [28],270.9 (36.0) h·μIU/mL
same,Average AUEtotal (CV%) Insulin,[4]; [29],410.2 (62.6) h·μIU/mL
same,Average AUEtotal (CV%) Insulin,[4]; [30],301.3 (28.6) h·μIU/mL
same,Average AUEtotal (CV%) Insulin,[4]; [31],274.9 (14.2) h·μIU/mL
same,Average AUEtotal (CV%) Insulin,[4]; [32],360.2 (30.6) h·μIU/mL
same,Average AUEtotal (CV%) Insulin,[4]; [33],264.7 (44.0) h·μIU/mL
same,Average AUEtotal (CV%) Insulin,[4]; [34],311.3 (32.0) h·μIU/mL
same,Average AUEtotal (CV%) Insulin,[4]; [35],460.3 (57.2) h·μIU/mL
same,Average AUEtotal (CV%) Insulin,[4]; [36],349.5 (24.7) h·μIU/mL
same,"Cough, number of cases",[5]; 5 mg (N=8),1
same,"Epigastric discomfort, number of cases",[5]; 5 mg (N=8),1
same,"Eyeball pain, number of cases",[5]; 5 mg (N=8),1
same,"Poor-quality sleep, number of cases",[5]; 5 mg (N=8),1
same,"Rhinorrhea, number of cases",[5]; 5 mg (N=8),1
same,"Sweating, number of cases",[5]; 5 mg (N=8),1
same,"Throat irritation, number of cases",[5]; 5 mg (N=8),1
same,"Vasovagal syncope, number of cases",[5]; 5 mg (N=8),1
same,"Fatigue, number of cases",[5]; [37],1 ^a
same,"Insomnia, number of cases",[5]; [37],1 ^a
same,% of subjects with AEs in a group,[5]; [38],50%
same,"AEs, number of cases",[5]; [38],10
same,"Musculoskeletal discomfort, number of cases",[5]; 10 mg (N=8),1
same,"Pharyngitis, number of cases",[5]; 10 mg (N=8),1
same,"Epigastric discomfort, number of cases",[5]; [39],1 ^a
same,"Sweating, number of cases",[5]; [39],1 ^a
same,% of subjects with AEs in a group,[5]; [40],50%
same,"AEs, number of cases",[5]; [40],5
same,"Joint pain, number of cases",[5]; 20 mg (N=8),1
same,"Prurigo, number of cases",[5]; 20 mg (N=8),1
same,"Headache, number of cases",[5]; [41],1 ^a
same,"Increased urinary frequency, number of cases",[5]; [41],1 ^a
same,% of subjects with AEs in a group,[5]; [42],37.5%
same,"AEs, number of cases",[5]; [42],4
same,Serious AEs,[5]; 5-20 mg once daily for 10 days,No serious AEs were reported
same,Severity of AEs,[5]; 5-20 mg once daily for 10 days,all AEs were mild in severity
same,"AEs, number of cases in subjects administered evogliptin","[5]; all evogliptin dose groups, 5-20 mg for 10 days",19 cases
same,Subjects with AEs among those administered evogliptin,"[5]; all evogliptin dose groups, eleven subjects",45.8%
same,Tolerability of repeated administration,"[5]; healthy subjects, 5–20 mg dose range",well tolerated
same,potency for DPP-IV compared to human DPP-VIII,[6],"6,000 times"
same,potency for DPP-IV compared to human DPP-IX,[7],"6,000 times"
same,potency for DPP-IV compared to human DPP-I,[8],"more than 20,000 times"
same,potency for DPP-IV compared to human DPP-II,[9],"more than 20,000 times"
same,potency for DPP-IV compared to FAPα,[10],"more than 20,000 times"
same,potency for DPP-IV compared to APP1,[11],"more than 20,000 times"
same,potency for DPP-IV compared to prolidase,[12],"more than 20,000 times"
same,potency for DPP-IV compared to granzyme B,[13],"more than 20,000 times"
same,induction of CYP3A4,[14],not an inducer
same,inhibition of CYP1A2,[15],nor an inhibitor
same,inhibition of CYP2C9,[16],nor an inhibitor
same,inhibition of CYP2C19,[17],nor an inhibitor
same,inhibition of CYP2D6,[18],nor an inhibitor
same,inhibition of CYP3A4,[19],nor an inhibitor
same,enzyme mediating metabolism,[20],primarily mediated by CYP3A4
same,dose proportionality of PKs after single dose,[21],dose-proportional PKs
same,tolerability after single dose,[21],good tolerability
same,effect on insulin sensitivity,[22],improved insulin sensitivity
same,effect on onset of diabetes,[23],delayed the onset of diabetes
same,effect on β-cell replication and neogenesis,[24],increased β-cell replication and neogenesis
same,"interindividual variability (CV%) of AUCτ,ss",5-20 mg,< 20%
same,"interindividual variability (CV%) of Cmax,ss",5-20 mg,< 30%
same,time to attain steady state,"all dosage groups, once daily",≤ 3 days
same,fess (fraction of the administered drug excreted into the urine at the steady state),"day 10, 5 mg once daily, mean ± SD",0.34±0.08
same,fess (fraction of the administered drug excreted into the urine at the steady state),"day 10, 10 mg once daily, mean ± SD",0.27±0.12
same,fess (fraction of the administered drug excreted into the urine at the steady state),"day 10, 20 mg once daily, mean ± SD",0.27±0.04
same,CLss/F,"day 10, steady state, 5 mg once daily, mean ± SD",49.4 ± 9.6 L/h
same,CLss/F,"day 10, steady state, 10 mg once daily, mean ± SD",63.4 ± 10.7 L/h
same,CLss/F,"day 10, steady state, 20 mg once daily, mean ± SD",54.3 ± 8.6 L/h
same,Tmax,"human, in vivo",4 to 5 h
same,AUC(0-t),"human, in vivo, 5 mg",73 ± 15.3 ng·h/mL
same,Cmax,"human, in vivo, 5 mg, Cmax, day 1, 5 mg, mean ± SD",4.9 ± 1.8 ng/mL
same,Cmax,"human, in vivo, 5 mg, Cmax,ss, day 10, steady state, 5 mg once daily, mean ± SD",6.7 ± 1.9 ng/mL
same,half-life,"human, in vivo, 5 mg, t1/2,ss, day 10, steady state, 5 mg once daily, mean ± SD",32.9 ± 6.1 h
same,AUC(0-t),"human, in vivo, 10 mg",118 ± 24.2 ng·h/mL
same,Cmax,"human, in vivo, 10 mg, Cmax, day 1, 10 mg, mean ± SD",9.5 ± 2.1 ng/mL
same,AUC(0-t),"human, in vivo, 20 mg",254 ± 44 ng·h/mL
same,Cmax,"human, in vivo, 20 mg, Cmax, day 1, 20 mg, mean ± SD",21.7 ± 3.7 ng/mL
same,Tmax,"human, in vivo, po, 5 mg",5.1 h
same,Tmax,"human, in vivo, po, 10 mg",5 h
same,Tmax,"human, in vivo, po, 20 mg",4.5 h
same,dose linearity of PKs,"within the 5–20 mg dose range, repeated administration",linear PKs
